Tests used:
Format in all cases: in vivo
[1] = system: Alopecurus myosuroides; experiment: Pre-emergence herbicidal activity against ALOMY; details: Alopecurus myosuroides, 504 h, dosage 80 g/ha, scored visually after about 3 weeks vs untreated controls
How it was run: (§1)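 Seeds sown in pots and covered with soil; compounds formulated as WP or EC applied to the soil surface as aqueous suspension or emulsion with 0.5% additive at 600 l/ha water. Pots held in greenhouse; activity scored visually about 3 weeks later as % versus untreated controls (100% = dead).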

[2] = system: Avena fatua; experiment: Pre-emergence herbicidal activity against AVEFA; details: Avena fatua, 504 h, dosage 80 g/ha, scored visually after about 3 weeks vs untreated controls, read-out: Pre-emergence herbicidal activity in % against AVEVA (AVEFA)
How it was run: as §1

[3] = system: Echinochloa crus-galli; experiment: Pre-emergence herbicidal activity against ECHCG; details: Echinochloa crus-galli, 504 h, dosage 80 g/ha, scored visually after about 3 weeks vs untreated controls
How it was run: as §1

[4] = system: Lolium rigidum; experiment: Pre-emergence herbicidal activity against LOLRI; details: Lolium rigidum, 504 h, dosage 80 g/ha, scored visually after about 3 weeks vs untreated controls
How it was run: as §1

[5] = system: Setaria viridis; experiment: Pre-emergence herbicidal activity against SETVI; details: Setaria viridis, 504 h, dosage 80 g/ha, scored visually after about 3 weeks vs untreated controls
How it was run: as §1

[6] = system: Amaranthus retroflexus; experiment: Pre-emergence herbicidal activity against AMARE; details: Amaranthus retroflexus, 504 h, dosage 80 g/ha, scored visually after about 3 weeks vs untreated controls
How it was run: as §1

[7] = system: Pharbitis purpurea; experiment: Pre-emergence herbicidal activity against PHBPU; details: dosage 80 g/ha, scored visually after about 3 weeks vs untreated controls
From the text: (§2) 1. Pre-emergence herbicidal action against harmful plants and crop plant compatibility Seeds of monocotyledonous and dicotyledonous weed plants and crop plants are placed in plastic or wood fiber pots and covered with soil. The compounds of the invention, formulated in the form of wettable powders (WP) or as emulsion concentrates (EC), are then applied onto the surface of the covering soil as aqueous suspension or emulsion with addition of 0.5% additive at a water application rate of 600 l/ha (converted). After the treatment, the pots are placed in a greenhouse and kept under good growth conditions for the trial plants. After about 3 weeks, the effect of the preparations is scored visually in comparison with untreated controls as percentages. For example, 100% activity=the plants have died, 0% activity=like control plants. [table]

[8] = system: Polygonum convolvulus; experiment: Pre-emergence herbicidal activity against POLCO; details: Fallopia convolvulus, 504 h, dosage 80 g/ha, scored visually after about 3 weeks vs untreated controls
How it was run: as §1

[9] = system: Stellaria media; experiment: Pre-emergence herbicidal activity against STEME; details: Stellaria media, 504 h, dosage 80 g/ha, scored visually after about 3 weeks vs untreated controls
How it was run: as §1

[10] = system: Viola tricolor; experiment: Pre-emergence herbicidal activity against VIOTR; details: Viola tricolor, 504 h, dosage 80 g/ha, scored visually after about 3 weeks vs untreated controls
How it was run: as §1

[11] = system: Veronica persica; experiment: Pre-emergence herbicidal activity against VERPE; details: Veronica persica, 504 h, dosage 80 g/ha
How it was run: as §1

[12] = system: Hordeum murinum; experiment: Pre-emergence herbicidal activity against HORMU; details: Hordeum murinum, 504 h, dosage 80 g/ha
How it was run: as §1

[13] = system: Alopecurus myosuroides; experiment: Post-emergence herbicidal activity against ALOMY; details: Alopecurus myosuroides, 504 h, dosage 320 g/ha, rated visually after about 3 weeks
How it was run: (§3)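 Post-emergence greenhouse spray at one-leaf stage, 600 l/ha with 0.5% additive; percent activity rated by eye after about 3 weeks relative to untreated plants.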

[14] = system: Avena fatua; experiment: Post-emergence herbicidal activity against AVEFA; details: Avena fatua, 504 h, dosage 320 g/ha, rated visually after about 3 weeks
How it was run: as §3

[15] = system: Echinochloa crus-galli; experiment: Post-emergence herbicidal activity against ECHCG; details: Echinochloa crus-galli, 504 h, dosage 320 g/ha, rated visually after about 3 weeks
How it was run: as §3

[16] = system: Lolium rigidum; experiment: Post-emergence herbicidal activity against LOLRI; details: Lolium rigidum, 504 h, dosage 320 g/ha, rated visually after about 3 weeks
How it was run: as §3

[17] = system: Setaria viridis; experiment: Post-emergence herbicidal activity against SETVI; details: Setaria viridis, 504 h, dosage 320 g/ha, rated visually after about 3 weeks
How it was run: as §3

[18] = system: Abutilon theophrasti; experiment: Post-emergence herbicidal activity against ABUTH; details: Abutilon theophrasti, 504 h, dosage 320 g/ha, rated visually after about 3 weeks
How it was run: as §3

[19] = system: Amaranthus retroflexus; experiment: Post-emergence herbicidal activity against AMARE; details: Amaranthus retroflexus, 504 h, dosage 320 g/ha, rated visually after about 3 weeks
How it was run: as §3

[20] = system: Pharbitis purpurea; experiment: Post-emergence herbicidal activity against PHBPU; details: Ipomoea purpurea, 504 h, dosage 320 g/ha, rated visually after about 3 weeks
How it was run: as §3

[21] = system: Polygonum convolvulus; experiment: Post-emergence herbicidal activity against POLCO; details: Fallopia convolvulus, 504 h, dosage 320 g/ha, rated visually after about 3 weeks
How it was run: as §3

[22] = system: Stellaria media; experiment: Post-emergence herbicidal activity against STEME; details: Stellaria media, 504 h, dosage 320 g/ha, rated visually after about 3 weeks
How it was run: as §3

[23] = system: Viola tricolor; experiment: Post-emergence herbicidal activity against VIOTR; details: Viola tricolor, 504 h, dosage 320 g/ha, rated visually after about 3 weeks
How it was run: as §3

[24] = system: Veronica persica; experiment: Post-emergence herbicidal activity against VERPE; details: Veronica persica, 504 h, dosage 320 g/ha, rated visually after about 3 weeks
How it was run: as §3

[25] = system: Hordeum murinum; experiment: Post-emergence herbicidal activity against HORMU; details: Hordeum murinum, 504 h, dosage 320 g/ha, rated visually after about 3 weeks
How it was run: as §3

[26] = Pre-emergence herbicidal action against harmful plants (summary of the tables); details: 504 h, application rate of 0.08 kg of active substance or less per hectare, read-out: herbicidal action, pre-emergence treatment (very good activity)
How it was run: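 Seeds of weeds and crops were covered with soil, then WP or EC formulations were sprayed onto the soil surface pre-emergence at 600 l/ha water with 0.5% additive. Plants were grown in a greenhouse for about 3 weeks, and damage was scored visually as a percentage versus untreated controls (100% = plants dead).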

[27] = system: Abutilon theophrasti; experiment: Pre-emergence herbicidal activity against ABUTH; details: dosage 80 g/ha, scored visually after about 3 weeks vs untreated controls
From the text: as §2

[28] = system: Cyperus esculentus; experiment: Pre-emergence herbicidal activity against CYPES; details: dosage 80 g/ha, scored visually after about 3 weeks vs untreated controls
From the text: as §2

C=C[C@]1(C(=O)N[C@@H]2CO[C@H](C(=O)NC3CC3)C2)CC(c2cc(F)cc(F)c2)=NO1 (mixture of isomers) [Example I-18, (5S)—N-[cis-5-(cyclopropylcarbamoyl)tetrahydrofuran-3-yl]-3-(3,5-difluorophenyl)-5-vinyl-4H-isoxazole-5-carboxamide]
80%: pest or weed control at 320 g/ha [23] | pest or weed control at 320 g/ha [24]
80 to 100%: pest or weed control at 80 g/ha [26]
100%: pest or weed control at 80 g/ha [1] | pest or weed control at 80 g/ha [4] | pest or weed control at 80 g/ha [5] | pest or weed control at 80 g/ha [6] | pest or weed control at 80 g/ha [8] | pest or weed control at 80 g/ha [9] | pest or weed control at 80 g/ha [10] | pest or weed control at 80 g/ha [12]
90%: pest or weed control at 80 g/ha [2] | pest or weed control at 80 g/ha [3] | Pre-emergence herbicidal activity in % against PHBPU [7] | pest or weed control at 80 g/ha [11] | pest or weed control at 320 g/ha [13] | pest or weed control at 320 g/ha [14] | pest or weed control at 320 g/ha [15] | pest or weed control at 320 g/ha [16] | pest or weed control at 320 g/ha [17] | pest or weed control at 320 g/ha [18] | pest or weed control at 320 g/ha [19] | pest or weed control at 320 g/ha [20] | pest or weed control at 320 g/ha [21] | pest or weed control at 320 g/ha [22] | pest or weed control at 320 g/ha [25]

CNC(=O)C1COCC1NC(=O)C1(C)CC(c2cc(F)cc(F)c2)=NO1 (centres unmarked) [Example I-07, 3-(3,5-difluorophenyl)-5-methyl-N-[4-(methylcarbamoyl)tetrahydrofuran-3-yl]-4H-isoxazole-5-carboxamide]
100%: pest or weed control at 80 g/ha [3] | Pre-emergence herbicidal activity in % against ABUTH [27]
80%: pest or weed control at 320 g/ha [20] | pest or weed control at 320 g/ha [21]

CC1(C(=O)NC2COCC2C(=O)N2CCCC2)CC(c2cc(F)cc(F)c2)=NO1 (centres unmarked) [Example I-09, 3-(3,5-difluorophenyl)-5-methyl-N-[4-(pyrrolidine-1-carbonyl)tetrahydrofuran-3-yl]-4H-isoxazole-5-carboxamide]
100%: Pre-emergence herbicidal activity in % against CYPES [28]
80%: pest or weed control at 320 g/ha [20]

— patent US11613522B2, “Herbicidally active 3-phenylisoxazoline-5-carboxamides of tetrahydro- and dihydrofurancarboxamides” (BAYER AKTIENGESELLSCHAFT, priority 2017, dated 2023)
